These are literature values, as cited in patent US20190209686A1, “PULSE PHOTODYNAMIC TREATMENT OF ACNE” (GALDERMA RESEARCH & DEVELOPMENT, priority 2013, published 2019).

Read-outs that look alike come from different tables or passages of the source.

The subject of series [1] is acne. As to conditions: 20%, 3 hours, 150 J/cm2 broad band light.
The test system of series [2] is acne. As to conditions: cream 16% wt., 3 hours, non-coherent red light.

Turning to `NCC(=O)CCC(=O)O` [ALA acid, 5-amino-4-oxo-pentanoic acid], in the series on acne [1], the “efficacy of PDT in acne” value was “effective for the treatment of acne”; the “side effects after PDT” value is “erythema, hyperpigmentation and exfoliation were often seen after PDT treatment”.
`COC(=O)CCC(=O)CN` [methyl ALA ester, 5-ALA methyl ester]: in the series on acne [2], the “side effects of PDT reported by subjects” value is “caused pain and induced severe inflammation”. The “efficacy of PDT in acne” value with acne [2] (repeated 2 weeks later) is “effective in the treatment of acne”.
